Measured values: patent US8822464B2, “N-aryl-piperazine derivatives and their use as positive allosteric modulators of mGluR5 receptors” (Boehringer Ingelheim International GmbH, priority 2011, dated 2014)

Target: T1, human recombinant mGluR5 (Homo sapiens, UniProt P41594)
T1 construct: expressed in transfected cells; host or cells: HEK 293 cell line; cultured with tetracycline, hygromycin and geneticin; tetracycline withdrawn 3-7 days before the assay
Experiment: positive modulation of mGluR5, calcium based FLIPR assay in HEK 293 cells
Conditions: HEK 293 cell line expressing human recombinant mGluR5; peak height of Ca release fluorescence signal after glutamate at approximately 5% basal stimulation; nonlinear regression
Protocol: The positive modulation of mGluR5 is measured in a HEK 293 cell line expressing human recombinant mGluR5 and is detected with calcium based FLIPR assay. The cells are cultured with DMEM supplemented with 10% FCS, 2 μg/mL tetracycline, 100 μg/mL hygromycin and 500 μg/mL gneticin. The cell culture media is exchanged for tetracycline-free cell culture media 3-7 days before the assay. One day before the assay the cell culture medium is exchanged to DMEM without glutamine and phenol red and supplemented with 10% FCS, 100 μg/mL hygromycin and 500 μg/mL geneticin. On the assay day, the medium of the subconfluent cultures is removed and the cells are detached by addition of 2.5 ml EDTA(0.02%) per 175 cm2 culture flask for 1 minute. The cells are resuspend in Ringer solution (140 mM NaCl, 5 mM KCl, 2.5 mM CaCl2, 1.5 mM MgCl2, 5 mM Glucose, 10 mM Hepes; adjusted to pH 7.4 with NaOH), pooled and Ringer solution added to adjust the volume to 50 mL. The cell suspension is centrifuged for 5 min at 1500 U/min (425 g). The supernatant is removed and the cells washed a second time with 50 ml fresh Ringer solution and centrifuged again as before. The supernatant is again removed and the pellet resuspended in Ringer solution to 1,000,000 cells/ml (1×10^6 cells/mL). The cells are plated onto BD BioCoat Poly-D-Lysine 384 well plates (20.000 cells/well; 20 μl/well). The lid covered plates are then incubated until use at 37° C./10% CO2. For dye loading, 20 μl of Calcium-4 assay kit solution (prepared according to the manufacturer's description in Ringer solution) are added to the cells and the plates are incubated for 80 min 37° C. and then 10 min at room temperature.
Controls, Compound Dilution and Assay Execution:
Each assay plate contained wells with “high” and “low” controls:
Low controls 1% DMSO/ringer solution+basal glutamate activation (defined as 100% CTL).
High controls 10 μM CDPPB+basal glutamate activation (defined as 200% CTL).
Test compounds are dissolved and diluted in DMSO to 100-fold the desired concentrations. In a second step, the compounds are diluted in Ringer solution such that the compounds are 4-fold more concentrated than the desired final assay concentration. The final DMSO concentration was 1%.
20 μl of each compound solution are then transferred to the assay plate and the Ca2+ kinetic is measured to determine any intrinsic compound activity. After 5 min incubation in the FLIPR device, the second stimulation with 20 μl of glutamate in Ringer solution (glutamate concentration adjusted to approximately 5% basal stimulation of the maximal possible glutamate effect) is added and the kinetic Ca2+ response of the wells was measured for the modulation effect.
The peak height of the Ca release related fluorescence signal (9-66) is used for the EC50. The EC50 of the modulation is calculated over a nonlinear regression with GraphPad Prism (Table 1).

T1 sequence (P41594 21-1212): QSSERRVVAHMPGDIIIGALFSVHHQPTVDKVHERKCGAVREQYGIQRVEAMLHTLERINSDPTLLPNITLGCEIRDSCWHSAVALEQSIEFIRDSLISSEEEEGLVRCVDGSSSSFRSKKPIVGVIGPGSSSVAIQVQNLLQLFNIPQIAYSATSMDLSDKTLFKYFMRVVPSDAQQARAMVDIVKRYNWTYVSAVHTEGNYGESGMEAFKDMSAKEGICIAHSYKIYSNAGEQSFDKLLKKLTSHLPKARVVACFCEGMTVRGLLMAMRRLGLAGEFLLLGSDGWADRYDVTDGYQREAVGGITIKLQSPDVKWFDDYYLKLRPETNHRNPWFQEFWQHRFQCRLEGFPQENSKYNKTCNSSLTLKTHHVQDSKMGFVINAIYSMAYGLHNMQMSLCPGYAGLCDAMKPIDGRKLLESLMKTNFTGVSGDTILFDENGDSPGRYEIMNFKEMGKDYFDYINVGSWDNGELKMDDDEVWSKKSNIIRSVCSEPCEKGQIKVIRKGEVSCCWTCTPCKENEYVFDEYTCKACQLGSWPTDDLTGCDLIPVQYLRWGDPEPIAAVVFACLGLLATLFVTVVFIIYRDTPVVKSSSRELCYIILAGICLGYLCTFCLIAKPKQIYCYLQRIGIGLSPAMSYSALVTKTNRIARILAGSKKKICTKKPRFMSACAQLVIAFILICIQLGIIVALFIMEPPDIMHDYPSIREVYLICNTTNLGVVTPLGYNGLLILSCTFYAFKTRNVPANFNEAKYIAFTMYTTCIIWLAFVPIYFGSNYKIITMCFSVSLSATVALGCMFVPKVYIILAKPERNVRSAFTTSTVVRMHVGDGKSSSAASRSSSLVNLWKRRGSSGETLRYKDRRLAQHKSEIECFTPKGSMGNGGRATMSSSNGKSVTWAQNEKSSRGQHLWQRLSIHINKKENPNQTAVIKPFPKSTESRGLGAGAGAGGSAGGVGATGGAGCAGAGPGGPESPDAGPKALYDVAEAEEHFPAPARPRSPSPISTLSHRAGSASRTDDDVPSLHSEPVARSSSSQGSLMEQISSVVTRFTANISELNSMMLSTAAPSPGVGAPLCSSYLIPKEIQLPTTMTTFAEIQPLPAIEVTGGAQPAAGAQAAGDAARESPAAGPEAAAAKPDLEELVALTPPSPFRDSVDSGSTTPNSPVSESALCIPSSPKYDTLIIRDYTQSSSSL

Row | EC50 | SMILES
1 | 0.006 µM | Cc1cc(-c2cc(-c3ccccc3)n(CC(=O)N3CCN(c4ncccn4)CC3)n2)ccc1F [Example 7.01.01, 2-(3-(4-Fluoro-3-methyl-phenyl)-5-phenyl-pyrazol-1-yl)-1-(4-(2-pyrimidinyl)-1-piperazinyl)-ethanon]
2 | 0.009 µM | Cc1cc(-c2cc(-c3ccccc3)n(CC(=O)N3CCN(c4cccnn4)CC3)n2)ccc1F [Example 7.01.02]
3 | 0.011 µM | COc1cc(N2CCN(C(=O)Cn3nc(-c4ccc(F)c(C)c4)cc3-c3ccccc3)CC2)ncn1 [Example 7.01.03]
4 | 0.011 µM | Cc1cc(-c2cc(-c3ccccc3)n(CC(=O)N3CCN(c4ccccn4)CC3)n2)ccc1F [Example 7.01.04]
5 | 0.044 µM | Cc1cc(-c2cc(-c3ccccc3)nn2CC(=O)N2CCN(c3ncccn3)CC2)ccc1F [Example 7.01.05]
6 | 0.099 µM | Cc1cc(-c2cc(-c3ccccc3)nn2CC(=O)N2CCN(c3ccccn3)CC2)ccc1F [Example 7.01.06]
7 | 0.621 µM | O=C(Cn1nc(-c2ccccc2)cc1-c1ccccc1)N1CCN(c2nccc3ccccc23)CC1 [Example 7.01.07]
8 | 0.349 µM | O=C(Cn1nc(-c2ccccc2)cc1-c1ccccc1)N1CCN(c2ccncn2)CC1 [Example 7.01.08]
9 | 0.75 µM | N#Cc1ccccc1N1CCN(C(=O)Cn2nc(-c3ccccc3)cc2-c2ccccc2)CC1 [Example 7.01.10]
10 | 1.42 µM | CCOc1ccccc1N1CCN(C(=O)Cn2nc(-c3ccccc3)cc2-c2ccccc2)CC1 [Example 7.01.11]
11 | 0.216 µM | O=C(Cn1nc(-c2ccccc2)cc1-c1ccccc1)N1CCN(c2ccc(Cl)nn2)CC1 [Example 7.01.12]
12 | 0.014 µM | O=C(Cn1nc(-c2ccc(F)cc2)cc1-c1ccc(F)cc1)N1CCN(c2ncccn2)CC1 [Example 7.01.13]
13 | 0.022 µM | COc1cc(N2CCN(C(=O)Cn3nc(-c4ccc(F)cc4)cc3-c3ccc(F)cc3)CC2)ncn1 [Example 7.01.14]
14 | 0.03 µM | O=C(Cn1nc(-c2ccc(F)cc2)cc1-c1ccc(F)cc1)N1CCN(c2ccccn2)CC1 [Example 7.01.15]
15 | 0.032 µM | COc1ccnc(N2CCN(C(=O)Cn3nc(-c4ccc(F)cc4)cc3-c3ccc(F)cc3)CC2)c1 [Example 7.01.16]
16 | 0.117 µM | COc1cccc(-c2cc(C3CCCCC3)n(CC(=O)N3CCN(c4ncccn4)CC3)n2)c1 [Example 7.01.17]
17 | 0.285 µM | COc1cccc(-c2cc(C3CCCCC3)n(CC(=O)N3CCN(c4ccccn4)CC3)n2)c1 [Example 7.01.18]
18 | 0.086 µM | COc1ccc(-c2cc(C(C)C)n(CC(=O)N3CCN(c4ncccn4)CC3)n2)cc1 [Example 7.01.19]
19 | 0.183 µM | COc1ccc(-c2cc(C(C)C)n(CC(=O)N3CCN(c4ccccn4)CC3)n2)cc1 [Example 7.01.20]
20 | 0.111 µM | COc1ccc(-c2cc(C(C)C)n(CC(=O)N3CCN(c4cc(C)ccn4)CC3)n2)cc1 [Example 7.01.21]

Row | EC50 | SMILES
21 | 0.701 µM | COc1ccc(-c2cc(C(C)C)n(CC(=O)N3CCN(c4cccnn4)CC3)n2)cc1 [Example 7.01.22]
22 | 0.221 µM | COc1ccc(-c2cc(C(C)C)n(CC(=O)N3CCN(c4cc(OC)ncn4)CC3)n2)cc1 [Example 7.01.23]
23 | 0.079 µM | Cc1ccnc(N2CCN(C(=O)Cn3nc(-c4ccc(F)c(C)c4)cc3C(C)C)CC2)c1 [Example 7.01.24]
24 | 0.112 µM | COc1ccnc(N2CCN(C(=O)Cn3nc(-c4ccc(F)c(C)c4)cc3C(C)C)CC2)c1 [Example 7.01.25]
25 | 0.138 µM | Cc1cc(-c2cc(C(C)C)n(CC(=O)N3CCN(c4ccccn4)CC3)n2)ccc1F [Example 7.01.26]
26 | 0.064 µM | COc1cc(N2CCN(C(=O)Cn3nc(-c4ccc(F)c(C)c4)cc3C(C)C)CC2)ncn1 [Example 7.01.27]
27 | 0.158 µM | Cc1cc(-c2cc(C(C)C)n(CC(=O)N3CCN(c4cccnn4)CC3)n2)ccc1F [Example 7.01.29]
28 | 0.987 µM | COc1cnnc(N2CCN(C(=O)Cn3nc(-c4ccc(F)c(C)c4)cc3C(C)C)CC2)c1 [Example 7.01.30]
29 | 0.208 µM | Cc1cc(-c2cc(C(C)C)n(CC(=O)N3CCN(c4ncc(F)cn4)CC3)n2)ccc1F [Example 7.01.31]
30 | 0.075 µM | COc1cnc(N2CCN(C(=O)Cn3nc(-c4ccc(F)c(C)c4)cc3C(C)C)CC2)nc1 [Example 7.01.32]
31 | 0.161 µM | Cc1ccnc(N2CCN(C(=O)Cn3nc(-c4ccc(F)c(C)c4)cc3C3CCCCC3)CC2)c1 [Example 7.01.33]
32 | 0.06 µM | Cc1cc(-c2cc(C3CCCCC3)n(CC(=O)N3CCN(c4ncccn4)CC3)n2)ccc1F [Example 7.01.34]
33 | 0.213 µM | Cc1cc(-c2cc(C3CCCCC3)n(CC(=O)N3CCN(c4ccccn4)CC3)n2)ccc1F [Example 7.01.35]
34 | 0.308 µM | COc1cc(N2CCN(C(=O)Cn3nc(-c4ccc(F)c(C)c4)cc3C3CCCCC3)CC2)ncn1 [Example 7.01.36]
35 | 0.298 µM | COc1ccnc(N2CCN(C(=O)Cn3nc(-c4ccc(F)c(C)c4)cc3C3CCCCC3)CC2)c1 [Example 7.01.37]
36 | 0.1 µM | Cc1cc(-c2cc(C3CCCCC3)n(CC(=O)N3CCN(c4cccnn4)CC3)n2)ccc1F [Example 7.01.38]
37 | 0.234 µM | Cc1cc(-c2cc(C3CC3)n(CC(=O)N3CCN(c4ccccn4)CC3)n2)ccc1F [Example 7.01.41]
38 | 0.101 µM | Cc1cc(-c2cc(C3CC3)n(CC(=O)N3CCN(c4ncccn4)CC3)n2)ccc1F [Example 7.01.42]
39 | 0.725 µM | Cc1cc(-c2cc(C3CC3)n(CC(=O)N3CCN(c4cccnn4)CC3)n2)ccc1F [Example 7.01.43]
40 | 0.176 µM | Cc1ccnc(N2CCN(C(=O)Cn3nc(-c4ccc(F)c(C)c4)cc3C3CC3)CC2)c1 [Example 7.01.44]

Row | EC50 | SMILES
41 | 1.01 µM | COc1cnnc(N2CCN(C(=O)Cn3nc(-c4ccc(F)c(C)c4)cc3C3CC3)CC2)c1 [Example 7.01.45]
42 | 0.333 µM | COc1ccnc(N2CCN(C(=O)Cn3nc(-c4ccc(F)c(C)c4)cc3C3CC3)CC2)c1 [Example 7.01.46]
43 | 0.447 µM | COc1cc(N2CCN(C(=O)Cn3nc(-c4ccc(F)c(OC)c4)cc3C(C)C)CC2)ncn1 [Example 7.01.47]
44 | 0.687 µM | COc1cc(-c2cc(C(C)C)n(CC(=O)N3CCN(c4cc(C)ccn4)CC3)n2)ccc1F [Example 7.01.48]
45 | 1.06 µM | COc1cc(-c2cc(C(C)C)n(CC(=O)N3CCN(c4ccccn4)CC3)n2)ccc1F [Example 7.01.49]
46 | 0.512 µM | COc1cc(-c2cc(C(C)C)n(CC(=O)N3CCN(c4ncc(Br)cn4)CC3)n2)ccc1F [Example 7.01.50]
47 | 0.485 µM | COc1cc(-c2cc(C(C)C)n(CC(=O)N3CCN(c4ncccn4)CC3)n2)ccc1F [Example 7.01.51]
48 | 0.431 µM | COc1ccc(-c2cc(C(C)C)n(CC(=O)N3CCN(c4cc(C)ccn4)CC3)n2)cc1C [Example 7.01.52]
49 | 0.205 µM | COc1ccc(-c2cc(C(C)C)n(CC(=O)N3CCN(c4ncccn4)CC3)n2)cc1C [Example 7.01.54]
50 | 0.501 µM | COc1ccnc(N2CCN(C(=O)Cn3nc(-c4ccc(OC)c(C)c4)cc3C(C)C)CC2)c1 [Example 7.01.55]
51 | 0.393 µM | COc1ccc(-c2cc(C(C)C)n(CC(=O)N3CCN(c4ccccn4)CC3)n2)cc1C [Example 7.01.56]
52 | 0.081 µM | O=C(Cn1nc(-c2ccc(F)cn2)cc1-c1ccccc1)N1CCN(c2ncccn2)CC1 [Example 7.01.57]
53 | 0.211 µM | O=C(Cn1nc(-c2ccc(F)cn2)cc1-c1ccccc1)N1CCN(c2ccccn2)CC1 [Example 7.01.58]
54 | 0.118 µM | O=C(Cn1nc(-c2ccc(F)cn2)cc1-c1ccc(F)cc1)N1CCN(c2ccccn2)CC1 [Example 7.01.59]
55 | 1.23 µM | O=C(Cn1nc(-c2ccc(F)cn2)cc1-c1ccccc1)N1CCN(c2cccnn2)CC1 [Example 7.01.60]
56 | 0.246 µM | COc1cc(N2CCN(C(=O)Cn3nc(-c4ccc(F)cn4)cc3-c3ccccc3)CC2)ncn1 [Example 7.01.61]
57 | 0.048 µM | O=C(Cn1nc(-c2ccc(F)cn2)cc1-c1ccc(F)cc1)N1CCN(c2ncccn2)CC1 [Example 7.01.62]
58 | 0.094 µM | COc1cc(N2CCN(C(=O)Cn3nc(-c4ccc(F)cn4)cc3-c3ccc(F)cc3)CC2)ncn1 [Example 7.01.63]

Row | SMILES | EC50
59 | O=C(Cn1nc(-c2ccccc2)cc1-c1ccccc1)N1CCN(c2ccc(Cl)cn2)CC1 [Example 7.01.09] | 0.373 µM
